The values that follow come from patent EP3763715A1, “HARRINGTONINES SALTS, IN PARTICULAR RETINOATES, THEIR PROCESS OF PREPARATION AND THEIR USES IN THE TREATMENT OF LEUKEMIAS, CANCERS, AUTOIMMUNE, SKIN, ALZHEIMER'S AND INFLAMMATORY BOWEL DISEASES AND VIRAL INFECTIONS, COMBINED WITH MYELOPOIESIS STIMULATING AGENTS” (Robin, Jean-Pierre, priority 2019, dated 2021).

Data set [1] deals with multidrug-resistant cell lines. The note with it: greater than that of HHT; cited from earlier work.
In the next data set the test system is Swiss nu/nu mice. The data set is described as follows: Toxicity seen in mice bearing MDA-MB-468 xenografts (in vivo efficacy study). The conditions noted are these: 1 mg/kg, subcutaneously, bi-daily, mice with MDA-MB-468 xenografts; all mice died after only a few days; preliminary experiment, data not shown. How it is done:
The experiments were conducted according to the Guide for the Care and Use of Laboratory Animals published by the US National Institutes of Health (NIH Publication n°85-23, revised 1996) and approved by the Ethic Committee of Clermont-Ferrand, France. All mouse studies were conducted in the animal facility of the INSERM U1240. Six weeks old Swiss nu/nu mice were purchased from Charles River Laboratories France and housed in standard conditions (n=5 per cage on ventilated racks, at 21-24 °C, 60% humidity, 12 h light/12 h dark cycle) with ad libitum access to irradiated food and water. […]
For assessment of HHT toxicity, groups of 6 mice were injected with sterile saline or 1, 2, 4 or 8 mg/kg of the drug, subcutaneously, bi-daily, over 7 days. […] The number of live animals was determined at days 4, 8 and 10, after treatment initiation.
For evaluation of HHT efficacy in vivo, when xenografts reached a volume of 200±20 mm^3, mice were randomized into the control or the treated group. […] Tumor size was non-invasively assessed using a digital caliper on days 3, 6, 8 and 10 after treatment initiation. Tumor volume was calculated using the following formula: V=(length×width^2)/2.

Take `C/C=C/C=C/COC(=O)C[C@](O)(CCCC(C)(C)O)C(=O)O[C@@H]1C(OC)=C[C@]23CCCN2CCc2cc4c(cc2[C@H]13)OCO4` [OP5215]: the antileukemic activity in data set [1] is 5 times.
For `COC(=O)C[C@](O)(CCCC(C)(C)O)C(=O)O[C@@H]1C(OC)=C[C@]23CCCN2CCc2cc4c(cc2[C@H]13)OCO4` [HHT, Homoharringtonine], the “toxicity for the animals” value in the data set with Swiss nu/nu mice is given as “too toxic”.
